This is an account of results in article PMC6932632 (Biochemistry, 2019).

The experiment concerns the target T1, p38γ (Homo sapiens, UniProt P53778).
T1 sequence (P53778 1-367): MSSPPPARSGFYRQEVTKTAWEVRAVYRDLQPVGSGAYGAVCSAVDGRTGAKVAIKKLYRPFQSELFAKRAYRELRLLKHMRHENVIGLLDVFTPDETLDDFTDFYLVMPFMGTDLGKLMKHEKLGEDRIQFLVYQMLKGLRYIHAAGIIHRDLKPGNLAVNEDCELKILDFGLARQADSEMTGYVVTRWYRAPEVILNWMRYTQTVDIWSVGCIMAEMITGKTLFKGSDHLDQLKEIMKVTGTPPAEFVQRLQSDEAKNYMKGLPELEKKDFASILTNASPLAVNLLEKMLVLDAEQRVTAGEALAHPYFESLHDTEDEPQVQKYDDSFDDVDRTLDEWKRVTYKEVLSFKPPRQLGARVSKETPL
Description: NMR titration. It counts as binding.

With `Nc1ncnc2c1ncn2[C@@H]1O[C@H](COP(=O)(O)OP(=O)(O)OP(=O)(O)O)[C@@H](O)[C@H]1O` [ATP], binding was put at a Kd of 770 µM.

For orientation: Kd means the constant that tells how readily two partners part at equilibrium. A lower Kd goes with higher affinity.
